Experiment: Displacement of [3H]DTG from sigma opioid receptor of homogenized guinea pig whole brain

Structure (SMILES) | IC50 [nM]
COc1ccc(N=C(N)NC23CC4CC(CC(C4)C2)C3)c(C)c1 | 7
NC(=NC12CC3CC(CC(C3)C1)C2)Nc1cccc(I)c1 | 8
NC(=Nc1ccccc1I)NC12CC3CC(CC(C3)C1)C2 | 6.2

Further lines, results first:

IC50 [nM] | Structure (SMILES)
17 | COc1ccccc1N=C(N)NC12CC3CC(CC(C3)C1)C2
3.2 | Cc1cc(F)ccc1N=C(N)NC12CC3CC(CC(C3)C1)C2
7 | COc1cccc(NC(N)=NC23CC4CC(CC(C4)C2)C3)c1
10 | COc1ccc(NC(N)=NC23CC4CC(CC(C4)C2)C3)cc1

Reference: BindingDB's records for doi:10.1021/jm00110a017 (Institutions, 1991)
